In brackets after ≈: the same amount, converted by molar mass. Where two headings read alike, the source gives them in different places.
Assays:
Format in all cases: cell-based
S. uberis ATCC 19436 = test: MIC by broth microdilution, S. uberis; conditions: Streptococcus uberis, read-out: S. uberis ATCC 19436 MIC
Method in brief: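 The MIC against S. uberis ATCC 19436 was the lowest compound concentration showing no growth by OD600 after 24 h at 37° C. with 200 rpm shaking. Cultures grown overnight were adjusted to OD600 ~0.025 so wells held approximately 5×10^5 cfu/mL in THB. Two-fold dilution series were made at a final volume of 200 μl. Media and untreated controls were run in triplicate on each plate.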

S. aureus ATCC 6538 = test: MIC by broth microdilution, S. aureus; conditions: Staphylococcus aureus, read-out: S. aureus ATCC 6538 MIC
Method in brief: (§1)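 Media: TSB or CAMHB for S. aureus, LB or CAMHB for E. coli, with zinc sulphate to 50 μM final where required. Cells at ~5×10^5 cfu/mL met two-fold compound series; growth was scored by OD600 after 24 h shaking at 37° C.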

E. coli ATCC 10596 = test: MIC by broth microdilution, E. coli; conditions: Escherichia coli, read-out: E. coli ATCC 10536 MIC
Method in brief: as §1

[1] = ATCC 10536 / ATCC 10596, No Zinc
[2] = ATCC 10536 / ATCC 10596, Zinc (50 μM)

SMILES	MIC (S. uberis ATCC 19436; ATCC19436, No Zinc) [µg/mL]	MIC (S. uberis ATCC 19436; ATCC19436, Zinc (50 μM)) [µg/mL]	MIC (S. aureus ATCC 6538; ATCC6538, No Zinc) [µg/mL]	MIC (S. aureus ATCC 6538; ATCC6538, Zinc (50 μM)) [µg/mL]	MIC (E. coli ATCC 10596; [1]) [µg/mL]	MIC (E. coli ATCC 10596; [2]) [µg/mL]
O=S(=O)(Nc1cccc2ccc(CNCCOCCO)nc12)c1ccc(C(F)(F)F)cc1 [ZDR129, N-(2-(((2-(2-Hydroxyethoxy)ethyl)amino)methyl)quinolin-8-yl)-4-(trifluoromethyl)benzenesulfonamide]	64 (≈ 136 µM)	1 (≈ 2.13 µM)	32 (≈ 68.2 µM)	32 (≈ 68.2 µM)	256 (≈ 545 µM)	256 (≈ 545 µM)
COCCNCc1ccc2cccc(NS(=O)(=O)c3ccc(C(F)(F)F)cc3)c2n1 [ZDR133, N-(2-(((2-Methoxyethyl)amino)methyl)quinolin-8-yl)-4-(trifluoromethyl)benzenesulfonamide]	64 (≈ 146 µM)	0.25 (≈ 0.569 µM)	64 (≈ 146 µM)	256 (≈ 583 µM)	> 256	256 (≈ 583 µM)
CC(C)N(Cc1ccc2cccc(NS(=O)(=O)c3ccc(C(F)(F)F)cc3)c2n1)C(C)C [ZDR136, N-(2-((Diisopropylamino)methyl)quinolin-8-yl)-4-(trifluoromethyl)benzenesulfonamide]	> 256	8 (≈ 17.2 µM)	> 256	> 256	> 256	> 256
CC(C)(C)OC(=O)N=C(NCCNCc1ccc2cccc(NS(=O)(=O)c3ccc(C(F)(F)F)cc3)c2n1)NC(=O)OC(C)(C)C [ZDR139, N-(2-(((N,N′-Bis-Boc-2-Guanidinoethyl)amino)methyl)quinolin-8-yl)-4-(trifluoromethyl)benzenesulfonamide]	64 (≈ 96 µM)	0.125 (≈ 0.187 µM)	256 (≈ 384 µM)	256 (≈ 384 µM)	> 256	> 256
N/C(=N\[N+](=O)[O-])NCCNCc1ccc2cccc(NS(=O)(=O)c3ccc(C(F)(F)F)cc3)c2n1 [ZDR145, (E)-N-(2-(((2-(2-Nitroguanidino)ethyl)amino)methyl)quinolin-8-yl)-4-(trifluoromethyl)benzenesulfonamide]	> 256	> 256	64 (≈ 125 µM)	128 (≈ 250 µM)	128 (≈ 250 µM)	256 (≈ 501 µM)
CN(C)Cc1ccc2cccc(NS(=O)(=O)c3ccc(S(N)(=O)=O)cc3)c2n1 [ZDR154, N-(2-((Dimethylamino)methyl)quinolin-8-yl)benzene-1,4-disulfonamide]	> 256	16 (≈ 38 µM)	> 256	> 256	> 256	> 256
CN(C)Cc1ccc2cccc(NS(=O)(=O)c3cccc(S(N)(=O)=O)c3)c2n1 [ZDR155, N-(2-((Dimethylamino)methyl)quinolin-8-yl)benzene-1,3-disulfonamide]	> 256	> 256	> 256	> 256	> 256	> 256
CN(C)Cc1ccc2cccc(NS(=O)(=O)c3cccc(N)c3)c2n1 [ZDR162, 3-Amino-N-(2-((dimethylamino)methyl)quinolin-8-yl)benzenesulfonamide]	256 (≈ 718 µM)	16 (≈ 44.9 µM)	> 256	> 256	> 256	> 256
CN(C)Cc1ccc2cccc(NS(=O)(=O)c3ccc(O)cc3)c2n1 [ZDR164, N-(2-((Dimethylamino)methyl)quinolin-8-yl)-4-hydroxybenzenesulfonamide]	> 256	> 256	> 256	> 256	> 256	> 256
CS(=O)(=O)NCCNCc1ccc2cccc(NS(=O)(=O)c3ccc(C(F)(F)F)cc3)c2n1 [ZDR180, N-(2-(((2-(Methylsulfonamido)ethyl)amino)methyl)quinolin-8-yl)-4-(trifluoromethyl)benzenesulfonamide]	> 256	0.5 (≈ 0.995 µM)	64 (≈ 127 µM)	256 (≈ 509 µM)	128 (≈ 255 µM)	> 256
CC(=O)NCc1ccc2cccc(NS(=O)(=O)c3ccc(C(F)(F)F)cc3)c2n1 [ZDR185, N-((8-((4-(Trifluoromethyl)phenyl)sulfonamido)quinolin-2-yl)methyl)acetamide]	> 256	0.125 (≈ 0.295 µM)	256 (≈ 605 µM)	32 (≈ 75.6 µM)	> 256	> 256

Second part, the compound after the results:

MIC (S. uberis ATCC 19436; ATCC19436, No Zinc) [µg/mL]	MIC (S. uberis ATCC 19436; ATCC19436, Zinc (50 μM)) [µg/mL]	MIC (S. aureus ATCC 6538; ATCC6538, No Zinc) [µg/mL]	MIC (S. aureus ATCC 6538; ATCC6538, Zinc (50 μM)) [µg/mL]	MIC (E. coli ATCC 10596; [1]) [µg/mL]	MIC (E. coli ATCC 10596; [2]) [µg/mL]	SMILES
64 (≈ 125 µM)	1 (≈ 1.95 µM)	128 (≈ 249 µM)	256 (≈ 499 µM)	256 (≈ 499 µM)	256 (≈ 499 µM)	O=S(=O)(Nc1cccc2ccc(CNCCOCCOCCO)nc12)c1ccc(C(F)(F)F)cc1 [ZDR130, N-(2-(((2-(2-(2-Hydroxyethoxy)ethoxy)ethyl)amino)methyl)quinolin-8-yl)-4-(trifluoromethyl)benzenesulfonamide]
64 (≈ 132 µM)	1 (≈ 2.07 µM)	64 (≈ 132 µM)	128 (≈ 265 µM)	256 (≈ 529 µM)	256 (≈ 529 µM)	COCCOCCNCc1ccc2cccc(NS(=O)(=O)c3ccc(C(F)(F)F)cc3)c2n1 [ZDR131, N-(2-(((2-(2-Methoxyethoxy)ethyl)amino)methyl)quinolin-8-yl)-4-(trifluoromethyl)benzenesulfonamide]
64 (≈ 121 µM)	1 (≈ 1.9 µM)	64 (≈ 121 µM)	256 (≈ 485 µM)	256 (≈ 485 µM)	256 (≈ 485 µM)	COCCOCCOCCNCc1ccc2cccc(NS(=O)(=O)c3ccc(C(F)(F)F)cc3)c2n1 [ZDR132, N-(2-(5,8,11-Trioxa-2-azadodecyl)quinolin-8-yl)-4-(trifluoromethyl)benzenesulfonamide]
128 (≈ 293 µM)	0.25 (≈ 0.571 µM)	32 (≈ 73.1 µM)	64 (≈ 146 µM)	> 256	> 256	CC(C)(C)NCc1ccc2cccc(NS(=O)(=O)c3ccc(C(F)(F)F)cc3)c2n1 [ZDR135, N-(2-((tert-Butylamino)methyl)quinolin-8-yl)-4-(trifluoromethyl)benzenesulfonamide]
> 256	0.125 (≈ 0.257 µM)	> 256	> 256	> 256	> 256	O=S(=O)(Nc1cccc2ccc(/C=N/OCc3ccccc3)nc12)c1ccc(C(F)(F)F)cc1 [ZDR137, (E)-N-(2-(((Benzyloxy)imino)methyl)quinolin-8-yl)-4-(trifluoromethyl)benzenesulfonamide]
> 256	0.5 (≈ 1.03 µM)	128 (≈ 264 µM)	128 (≈ 264 µM)	> 256	> 256	O=S(=O)(Nc1cccc2ccc(/C=N/NCc3ccccc3)nc12)c1ccc(C(F)(F)F)cc1 [ZDR138, (E)-N-(2-((2-Benzylhydrazineylidene)methyl)quinolin-8-yl)-4-(trifluoromethyl)benzenesulfonamide]
64 (≈ 137 µM)	1 (≈ 2.14 µM)	64 (≈ 137 µM)	128 (≈ 274 µM)	128 (≈ 274 µM)	256 (≈ 549 µM)	CC(=O)NCCNCc1ccc2cccc(NS(=O)(=O)c3ccc(C(F)(F)F)cc3)c2n1 [ZDR148, N-(2-(((8-((4-(Trifluoromethyl)phenyl)sulfonamido)quinolin-2-yl)methyl)amino)ethyl)acetamide]
> 256	0.5 (≈ 1.22 µM)	64 (≈ 157 µM)	64 (≈ 157 µM)	> 256	> 256	CN/N=C/c1ccc2cccc(NS(=O)(=O)c3ccc(C(F)(F)F)cc3)c2n1 [ZDR153, (E)-N-(2-((2-Methylhydrazineylidene)methyl)quinolin-8-yl)-4-(trifluoromethyl)benzenesulfonamide]
256 (≈ 718 µM)	> 256	> 256	> 256	> 256	> 256	CN(C)Cc1ccc2cccc(NS(=O)(=O)c3ccc(N)cc3)c2n1 [ZDR160, 4-Amino-N-(2-((dimethylamino)methyl)quinolin-8-yl)benzenesulfonamide]
> 256	8 (≈ 22.4 µM)	> 256	> 256	> 256	> 256	CN(C)Cc1ccc2cccc(NS(=O)(=O)c3cccc(O)c3)c2n1 [ZDR163, N-(2-((Dimethylamino)methyl)quinolin-8-yl)-3-hydroxybenzenesulfonamide]
> 256	0.5 (≈ 1.31 µM)	4 (≈ 10.5 µM)	4 (≈ 10.5 µM)	> 256	> 256	O=S(=O)(Nc1cccc2ccc(CO)nc12)c1ccc(C(F)(F)F)cc1 [ZDR176, N-(2-(Hydroxymethyl)quinolin-8-yl)-4-(trifluoromethyl)benzenesulfonamide]
> 256	0.5 (≈ 0.886 µM)	64 (≈ 113 µM)	> 256	64 (≈ 113 µM)	> 256	O=S(=O)(NCCNCc1ccc2cccc(NS(=O)(=O)c3ccc(C(F)(F)F)cc3)c2n1)c1ccccc1 [ZDR181, N-(2-(((2-(Phenylsulfonamido)ethyl)amino)methyl)quinolin-8-yl)-4-(trifluoromethyl)benzenesulfonamide]
32 (≈ 83.9 µM)	0.5 (≈ 1.31 µM)	8 (≈ 21 µM)	4 (≈ 10.5 µM)	64 (≈ 168 µM)	128 (≈ 336 µM)	NCc1ccc2cccc(NS(=O)(=O)c3ccc(C(F)(F)F)cc3)c2n1 [ZDR184, N-(2-(Aminomethyl)quinolin-8-yl)-4-(trifluoromethyl)benzenesulfonamide]
